Legend:
[1] = target: T1, BRD4 bromo domain 2 [BRD4(2)] (Homo sapiens, UniProt O60885); assay: BRD4(2)/acetylated peptide H4 binding assay (TR-FRET); conditions: inhibition of interaction between His6-tagged BRD4(2) (amino acids 357-445) and acetylated histone H4 peptide
T1 construct: N-terminally His6-tagged BRD4(2) (amino acids 357-445); made in house; host or cells: E. coli
Method in brief: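 TR-FRET displacement of biotinylated tetra-acetylated H4 peptide from His6-BRD4(2) (aa 357-445, E. coli-expressed), 100 nM final, in HEPES pH 7.5 buffer; 11 compound concentrations 0.1 nM-20 μM, 10 min preincubation, then 1 h 22 °C plus ≥3 h 4 °C. 665/620 ratio read; IC50 by 4-parameter fit.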

MOLM-13 cell line = assay: MOLM-13 cell proliferation assay (alamarBlue); format: cell-based; conditions: Homo sapiens, inhibition of proliferation of MOLM-13 cells (acute myeloid leukaemia), 96 hours incubation
Method in brief: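 MOLM-13 (human AML) cells were treated with compound dilutions for 96 h at 37 °C after overnight plating, and viability was read by alamarBlue fluorescence (ex 530/em 590 nm). Pre-treatment readings were subtracted from end-point readings, and IC50 was calculated relative to buffer-only controls.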

[2] = target: T2, BRD4 bromo domain 1 [BRD4(1)] (Homo sapiens, UniProt O60885); assay: BRD4(1)/acetylated peptide H4 binding assay (TR-FRET); conditions: inhibition of interaction between His6-tagged BRD4(1) (amino acids 67-152) and acetylated histone H4 peptide
T2 construct: N-terminally His6-tagged BRD4(1) (amino acids 67-152); made in house; host or cells: E. coli
Method in brief: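 TR-FRET measured displacement of a biotinylated tetra-acetylated H4 peptide from His6-BRD4(1) (aa 67-152, E. coli-expressed, typically 10 nM) in HEPES pH 7.5 buffer. Compounds were tested at 11 concentrations (0.1 nM–20 μM), with 10 min preincubation, then 1 h at 22 °C and ≥3 h at 4 °C. The 665/620 nm ratio gave IC50 by 4-parameter fit.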

Structure (SMILES) | IC50 [1] [nM] | IC50 (MOLM-13 cell line) [nM] | IC50 [2] [nM]
C[C@@H]1C(=O)N(C)c2ccc(Nc3ccc(C(=O)N4CC5(CCS5(=O)=O)C4)cc3)nc2N1Cc1ccccc1 [Example 75, (3R)-4-Benzyl-6-({4-[(1,1-dioxido-1-thia-6-azaspiro[3.3]hept-6-yl)carbonyl]phenyl}amino)-1,3-dimethyl-3,4-dihydropyrido[2,3-b]pyrazin-2(1H)-one] | 82 | 350 | 149
COc1cc(C(=O)NC2CCN(C(C)=O)CC2)ccc1Nc1ccc2c(n1)N(Cc1ccccc1)[C@H](C)C(=O)N2C [Example 77, N-(1-Acetylpiperidin-4-yl)-4-{[(3R)-4-benzyl-1,3-dimethyl-2-oxo-1,2,3,4-tetrahydropyrido[2,3-b]pyrazin-6-yl]amino}-3-methoxybenzamide] | 103 | 242 | 55
CC(=O)N1CCC(NC(=O)c2ccc(Nc3ccc4c(n3)N(Cc3ccccc3)[C@H](C)C(=O)N4C)cc2)CC1 [Example 78, N-(1-Acetylpiperidin-4-yl)-4-{[(3R)-4-benzyl-1,3-dimethyl-2-oxo-1,2,3,4-tetrahydropyrido[2,3-b]pyrazin-6-yl]amino}benzamide] | 111 | 243 | 153
COc1cc(C(=O)NC2CCC(O)CC2)ccc1Nc1ccc2c(n1)N(Cc1ccccc1)[C@H](C)C(=O)N2C (stereo partly drawn) [Example 79, 4-{[(3R)-4-Benzyl-1,3-dimethyl-2-oxo-1,2,3,4-tetrahydropyrido[2,3-b]pyrazin-6-yl]amino}-N-(4-hydroxycyclohexyl)-3-methoxybenzamide] | 51 | 282 | 120
COc1cc(C(=O)N2CCN(C(C)C)CC2)ccc1Nc1ccc2c(n1)N(Cc1ccccc1)[C@H](C)C(=O)N2C [Example 80, (3R)-4-Benzyl-6-[(2-methoxy-4-{[4-(propan-2-yl)piperazin-1-yl]carbonyl}phenyl)amino]-1,3-dimethyl-3,4-dihydro pyrido[2,3-b]pyrazin-2(1H)-one] | 138 | 170 | 137
C[C@@H]1C(=O)N(C)c2ccc(Nc3ccc(C(=O)NCCN4CCN(C)CC4)cc3)nc2N1Cc1ccccc1 [Example 81, 4-{[(3R)-4-Benzyl-1,3-dimethyl-2-oxo-1,2,3,4-tetrahydropyrido[2,3-b]pyrazin-6-yl]amino}-N-[2-(4-methylpiperazin-1-yl)ethyl]benzamide] | 23 | 96 | 89
COc1cc(C(=O)NCCN2CCN(C)CC2)ccc1Nc1ccc2c(n1)N(Cc1ccccc1)[C@H](C)C(=O)N2C [Example 82, 4-{[(3R)-4-Benzyl-1,3-dimethyl-2-oxo-1,2,3,4-tetrahydropyrido[2,3-b]pyrazin-6-yl]amino}-3-methoxy-N-[2-(4-methylpiperazin-1-yl)ethyl]benzamide] | 48 | 131 | 40
COc1cc(C(=O)N2CC3(COC3)C2)ccc1Nc1ccc2c(n1)N(Cc1ccccc1)[C@H](C)C(=O)N2C [Example 83, (3R)-4-Benzyl-6-{[2-methoxy-4-(2-oxa-6-azaspiro[3.3]hept-6-ylcarbonyl)phenyl]amino}-1,3-dimethyl-3,4-dihydropyrido[2,3-b]pyrazin-2(1H)-one] | 61 | 122 | 133
COc1cc(C(=O)NCCN2CCN(C)CC2)ccc1Nc1ccc2c(n1)N(C1CCCCCC1)[C@H](C)C(=O)N2C [Example 91, 4-{[(3R)-4-Cycloheptyl-1,3-dimethyl-2-oxo-1,2,3,4-tetrahydropyrido[2,3-b]pyrazin-6-yl]amino}-3-methoxy-N-[2-(4-methylpiperazin-1-yl)ethyl]benzamide] | 135 | 353 | 154
CC(C)N1c2nc(Nc3ccc(S(=O)(=O)N4CCN(C)CC4)cc3)ccc2N(C)C(=O)[C@H]1C [Example 99, (3R)-1,3-Dimethyl-6-({4-[(4-methylpiperazin-1-yl)sulphonyl]phenyl}amino)-4-(propan-2-yl)-3,4-dihydropyrido[2,3-b]pyrazin-2(1H)-one] | 104 | 316 | 145
CC(C)N1c2nc(Nc3ccc(S(=O)(=O)N(C)C)cc3)ccc2N(C)C(=O)[C@H]1C [Example 100, 4-{[(3R)-1,3-Dimethyl-2-oxo-4-(propan-2-yl)-1,2,3,4-tetrahydropyrido[2,3-b]pyrazin-6-yl]amino}-N,N-dimethylbenzenesulphon-amide] | 71 | 336 | 156
CC(C)N1c2nc(Nc3ccc(S(=O)(=O)N4CCOCC4)cc3)ccc2N(C)C(=O)[C@H]1C [Example 101, (3R)-1,3-Dimethyl-6-{[4-(morpholin-4-ylsulphonyl)phenyl]amino}-4-(propan-2-yl)-3,4-dihydropyrido[2,3-b]pyrazin-2(1H)-one] | 105 | 226 | 134
CC(C)N1CCN(S(=O)(=O)c2ccc(Nc3ccc4c(n3)N(C3CCCC3)[C@H](C)C(=O)N4C)cc2)CC1 [Example 102, (3R)-4-Cyclopentyl-1,3-dimethyl-6-[(4-{[4-(propan-2-yl)piperazin-1-yl]sulphonyl}phenyl)amino]-3,4-dihydropyrido[2,3-b]pyrazin-2(1H)-one] | 90 | 214 | 100
C[C@@H]1C(=O)N(C)c2ccc(Nc3ccc(S(=O)(=O)N(C)C)cc3)nc2N1C1CCCC1 [Example 103, 4-{[(3R)-4-Cyclopentyl-1,3-dimethyl-2-oxo-1,2,3,4-tetrahydropyrido[2,3-b]pyrazin-6-yl]amino}-N,N-dimethylbenzenesulphonamide] | 51 | 177 | 78
CC1C(=O)N(C)c2ccc(Nc3ccc(S(=O)(=O)NC4CCN(C)CC4)cc3)nc2N1c1ccccc1 (stereo not drawn) [Example 107, 4-[(1,3-Dimethyl-2-oxo-4-phenyl-1,2,3,4-tetrahydropyrido[2,3-b]pyrazin-6-yl)amino]-N-(1-methylpiperidin-4-yl)benzenesulphonamide] | 241 | 255 | 201
